In US11311524B2, “Pharmaceutical composition used for treatment of HTLV-1-associated myelopathy” (DAIICHI SANKYO COMPANY, LIMITED, priority 2017, dated 2022):

Assays:
HAM patient-derived PBMC = assay: IL-10 and other cytokine release from HAM patient-derived PBMC (Cytokine Beads Array); format: cell-based, human; details: PBMC of 8 HAM patients, 12 days culture, 1-1000 nM, relative to DMSO
Method: PBMC taken from 8 HAM patients were suspended in a culture medium (RPMI1640 culture medium containing 10% FBS), seeded in a 48-well plate in a ratio of 5×10^5 cells per well and a compound A or compound B was added so as to provide a final concentration of 1, 10, 100 or 1000 nM. The culture solution of 0.5 mL in total was cultured at 37° C. in 5% CO2 conditions for 12 days. A group treated with DMSO and a group treated with PSL (1 μg/mL) were used as controls. Day 12 after initiation of the culture, the culture solution was centrifuged, and thereafter, the culture supernatant alone was recovered. The concentration of IL-10 in the culture supernatant was determined by use of the Cytokine Beads Array kit (BD Biosciences) and a flow cytometer FACSCantoII (BD Biosciences) (Yamauchi et al., J Infect Dis. 2015, 211 (2): 238-48). Based on the IL-10 concentration in the culture solution of the DMSO treatment group as 100%, changes in IL-10 concentration of culture solutions of groups treated with compound A and compound B different in concentration or a group treated with PSL (1 μg/mL) were compared. The significance test was carried out by using the Friedman test of GraphPad Prism6 (MDF).

EZH1 = EZH1 (Homo sapiens, UniProt Q92800); details: from WO2015/141616; cited from earlier work
EZH2 = EZH2 (Homo sapiens, UniProt Q15910); details: from WO2015/141616; cited from earlier work
HCT-5 cells [1] = assay: Proliferation/viability of HTLV-1 infected cell line HCT-5 (CCK-8); format: cell-based, human; details: for Viability of HTLV-1 infected cells vs DMSO group: HCT-5, 1 μM, up to 21 days culture; for GI50: Homo sapiens, 336 h, 14 days culture, CCK-8
Method: (§1) HCT-4 and HCT-5, which were HTLV-1 infected cell lines established from the cerebrospinal fluid of HAM patients, were donated from a professor, Tatsufumi Nakamura of the Nagasaki International University. HCT-4 was cultured in RPMI1640 culture medium containing 10% FBS (GIBCO), a 1% penicillin-streptomycin solution (Wako) and 100 U/mL IL-2 (Cell Science & Technology Institute, Inc.); whereas HCT-5 was cultured by using 10% FBS, 1% penicillin-streptomycin solution, 1% L-glutamine (SIGMA) and 200 U/mL IL-2. HCT-4 (3×10^6 cells) or HCT-5 (2.5×10^6 cells) were seeded in a culture medium (20 mL) in a 75 cm^2-culture flask. DMSO was added and compound A or B was added so as to provide a final concentration of 1 μM and culture was carried out at 37° C. in 5% CO2 conditions for 21 days while repeating subculture. In the subculture, a culture solution containing HCT-4 treated with DMSO so as to correspond to 3×10^6 cells, whereas a culture solution containing HCT-5 treated with DMSO so as to correspond to 2.5×10^6 cells were taken and each added to a new culture medium to obtain a final volume of 20 mL, and then, further compound A or B was added so as to obtain the same concentration as above. Day 7, 14 and 21 after initiation of culture, cells were recovered from the culture solution and the density of the cells was measured. In this manner, the effect of compound A or B on cell proliferation was examined. The density of cells was determined by seeding cultured cells in a 96-well plate in a volume of 100 μL per well, adding 10 μL of Cell counting kit-8 (CCK-8) (Dojindo Laboratories laboratory) per well, incubating the cells at 37° C. for 3 hours and measuring absorbance at 450 nm by a plate reader (iMark Microplate Reader, Biorad). The proliferation rates of cell groups treated with compound A or compound B were each calculated based on the cell group treated with DMSO as a control. Next, in a 6-well plate, HCT-4 (4.5×10^5 cells) or HCT-5 (3.75×10^5 cells) were seeded. A solution of compound A or B prepared with DMSO was serially diluted (4-fold dilution from 10000 nM was serially repeated 8 times) and added thereto. The cells were repeatedly subcultured at intervals of 3 to 4 days in a culture solution of 3 mL in total at 37° C. in 5% CO2 condition for 14 days. […] The cells cultured for 14 days in individual conditions were recovered and the density of the cells were measured. […] The density of cells was determined by seeding the cultured cells (100 μL) per well in a 96-well plate, adding 10 μL of CCK-8 per well, incubating the cells at 37° C. for 3 hours and measuring absorbance at 450 nm by a plate reader. The proliferation rate of a group treated with compound A or compound B was calculated based on the group treated with DMSO as a control.

HCT-4 cells = assay: Proliferation/viability of HTLV-1 infected cell line HCT-4 (CCK-8); format: cell-based, human; details: for Viability of HTLV-1 infected cells vs DMSO group: HCT-4, 1 μM, up to 21 days culture; for GI50: Homo sapiens, 336 h, 14 days culture, CCK-8
Method: as §1

HCT-5 cells [2] = assay: Apoptosis of HCT-5 cells (Annexin V-PE / 7-AAD, FACS); format: cell-based, human; details: HCT-5, 1 μM, 21 days
Method: In this Example, experiments were carried out using the cells cultured for 21 days in Example 5. To detect apoptotic cells in the cells cultured for 21 days by adding 1 μM of compound A or compound B, the cells were stained by use of PE Annexin V apoptosis Detection Kit I (BD) and analyzed by FACS. In this analysis, the viable cells were detected based on FSC (forward scatter)-SSC (side scatter) plots. The viable cells were analyzed by Annexin V-PE (annexin V) and 7-AAD (7-amino actinomycin D). Early apoptotic cells were detected as Annexin V (+) 7-AAD (−) cells. The results were as shown in FIG. 8 (HCT-4 cells) and FIG. 9 (HCT-5 cells).

EZH2, sequence (Q15910 whole entry): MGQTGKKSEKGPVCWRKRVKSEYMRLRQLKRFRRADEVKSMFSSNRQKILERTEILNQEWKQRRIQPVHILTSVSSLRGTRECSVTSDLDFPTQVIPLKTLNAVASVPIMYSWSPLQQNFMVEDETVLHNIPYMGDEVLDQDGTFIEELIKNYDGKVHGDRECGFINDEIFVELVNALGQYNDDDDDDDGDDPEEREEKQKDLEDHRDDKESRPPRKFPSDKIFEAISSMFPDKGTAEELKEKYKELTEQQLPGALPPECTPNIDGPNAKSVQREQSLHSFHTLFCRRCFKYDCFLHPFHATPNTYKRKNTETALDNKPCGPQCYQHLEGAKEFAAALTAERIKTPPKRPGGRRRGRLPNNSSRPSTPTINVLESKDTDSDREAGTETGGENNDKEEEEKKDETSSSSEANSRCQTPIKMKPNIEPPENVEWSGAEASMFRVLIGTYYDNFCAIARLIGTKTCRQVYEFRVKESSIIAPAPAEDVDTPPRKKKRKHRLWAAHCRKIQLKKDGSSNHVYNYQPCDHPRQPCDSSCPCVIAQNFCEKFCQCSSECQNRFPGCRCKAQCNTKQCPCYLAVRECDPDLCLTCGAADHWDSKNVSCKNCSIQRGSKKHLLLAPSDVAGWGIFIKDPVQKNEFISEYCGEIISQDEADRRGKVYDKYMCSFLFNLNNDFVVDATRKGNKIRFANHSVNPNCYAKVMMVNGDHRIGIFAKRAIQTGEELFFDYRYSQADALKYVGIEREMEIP
EZH2, sequence (O75530 whole entry partner): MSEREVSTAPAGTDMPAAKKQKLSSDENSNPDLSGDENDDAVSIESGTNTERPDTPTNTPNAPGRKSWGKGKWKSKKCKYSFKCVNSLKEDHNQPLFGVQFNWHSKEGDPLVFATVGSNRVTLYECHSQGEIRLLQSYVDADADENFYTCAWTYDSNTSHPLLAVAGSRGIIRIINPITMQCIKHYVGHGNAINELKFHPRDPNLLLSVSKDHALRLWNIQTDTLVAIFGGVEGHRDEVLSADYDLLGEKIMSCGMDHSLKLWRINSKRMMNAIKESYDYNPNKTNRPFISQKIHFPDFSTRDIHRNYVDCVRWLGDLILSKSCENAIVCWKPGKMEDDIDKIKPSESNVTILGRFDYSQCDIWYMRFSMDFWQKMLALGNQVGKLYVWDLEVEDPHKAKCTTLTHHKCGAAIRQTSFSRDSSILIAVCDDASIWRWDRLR
EZH2, sequence (Q15022 whole entry partner): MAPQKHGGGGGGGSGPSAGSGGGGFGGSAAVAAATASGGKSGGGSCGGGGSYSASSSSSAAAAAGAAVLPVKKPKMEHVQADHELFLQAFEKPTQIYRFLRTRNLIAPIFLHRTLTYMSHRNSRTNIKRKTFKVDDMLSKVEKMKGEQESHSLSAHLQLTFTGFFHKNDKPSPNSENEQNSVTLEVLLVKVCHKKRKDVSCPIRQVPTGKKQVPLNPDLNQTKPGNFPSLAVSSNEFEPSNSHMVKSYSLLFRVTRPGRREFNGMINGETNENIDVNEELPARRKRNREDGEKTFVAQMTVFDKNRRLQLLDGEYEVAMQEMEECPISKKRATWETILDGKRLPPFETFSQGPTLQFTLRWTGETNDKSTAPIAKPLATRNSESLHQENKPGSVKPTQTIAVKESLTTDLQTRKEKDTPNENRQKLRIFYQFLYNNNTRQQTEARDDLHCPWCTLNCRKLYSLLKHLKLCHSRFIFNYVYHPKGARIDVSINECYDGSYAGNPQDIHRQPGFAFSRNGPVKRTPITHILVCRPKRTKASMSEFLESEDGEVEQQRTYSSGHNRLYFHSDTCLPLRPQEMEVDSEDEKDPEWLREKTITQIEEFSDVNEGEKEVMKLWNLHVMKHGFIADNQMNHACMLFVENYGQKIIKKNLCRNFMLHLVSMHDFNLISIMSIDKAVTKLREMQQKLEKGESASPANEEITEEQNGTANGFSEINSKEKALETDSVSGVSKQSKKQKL
EZH2, sequence (Q09028 whole entry partner): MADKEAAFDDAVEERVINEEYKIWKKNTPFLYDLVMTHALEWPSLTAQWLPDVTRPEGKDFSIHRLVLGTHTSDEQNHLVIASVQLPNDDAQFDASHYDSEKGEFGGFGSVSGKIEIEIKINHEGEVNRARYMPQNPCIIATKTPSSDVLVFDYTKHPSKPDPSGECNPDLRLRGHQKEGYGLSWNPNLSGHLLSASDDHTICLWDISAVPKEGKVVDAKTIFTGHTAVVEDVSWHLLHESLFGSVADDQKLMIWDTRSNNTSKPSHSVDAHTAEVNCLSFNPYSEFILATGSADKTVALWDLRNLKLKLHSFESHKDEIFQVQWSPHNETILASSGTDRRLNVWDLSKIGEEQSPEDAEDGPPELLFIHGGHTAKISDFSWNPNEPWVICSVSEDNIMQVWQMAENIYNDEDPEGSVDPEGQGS
EZH1, sequence (Q92800 whole entry): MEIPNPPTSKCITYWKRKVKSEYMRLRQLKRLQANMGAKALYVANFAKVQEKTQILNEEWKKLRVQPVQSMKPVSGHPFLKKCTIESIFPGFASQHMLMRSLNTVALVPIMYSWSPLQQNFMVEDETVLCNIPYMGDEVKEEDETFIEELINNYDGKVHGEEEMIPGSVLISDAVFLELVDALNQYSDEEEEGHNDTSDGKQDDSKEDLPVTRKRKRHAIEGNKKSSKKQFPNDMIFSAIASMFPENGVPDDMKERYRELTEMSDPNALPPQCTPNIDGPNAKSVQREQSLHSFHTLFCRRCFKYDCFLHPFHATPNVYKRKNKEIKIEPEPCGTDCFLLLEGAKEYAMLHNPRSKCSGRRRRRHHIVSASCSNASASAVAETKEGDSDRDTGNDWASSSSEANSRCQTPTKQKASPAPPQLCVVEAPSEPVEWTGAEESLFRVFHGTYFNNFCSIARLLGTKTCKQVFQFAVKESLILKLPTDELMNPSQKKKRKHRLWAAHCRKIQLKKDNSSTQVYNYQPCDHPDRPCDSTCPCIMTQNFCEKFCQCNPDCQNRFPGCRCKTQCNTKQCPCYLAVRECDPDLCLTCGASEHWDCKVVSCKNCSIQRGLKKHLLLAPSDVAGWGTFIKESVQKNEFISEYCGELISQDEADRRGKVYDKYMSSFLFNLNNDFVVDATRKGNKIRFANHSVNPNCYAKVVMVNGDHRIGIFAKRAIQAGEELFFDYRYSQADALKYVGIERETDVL
EZH1, sequence (O75530 whole entry partner): as the sequence (O75530 whole entry partner) above
EZH1, sequence (Q15022 whole entry partner): as the sequence (Q15022 whole entry partner) above
EZH1, sequence (Q09028 whole entry partner): as the sequence (Q09028 whole entry partner) above

SMILES	Yield of IL-10 from PBMC (HAM patient-derived PBMC)	Inhibition of enzyme activity of EZH1 (EZH1)	Inhibition of enzyme activity of EZH2 (EZH2)	Viability of HTLV-1 infected cells vs DMSO group (HCT-5 cells [1])	GI50 (HCT-5 cells [1])	Viability of HTLV-1 infected cells vs DMSO group (HCT-4 cells)	GI50 (HCT-4 cells)	Number of early apoptotic cells (Annexin V (+) 7-AAD (−)) (HCT-5 cells [2])	Number of viable cells (FSC-SSC) (HCT-5 cells [2])
Cc1cc(C)c(CNC(=O)c2cc(Br)c3c(c2C)O[C@@](C)([C@H]2CC[C@H](N(C)C)CC2)O3)c(=O)[nH]1 [compound A, (2R)-7-bromo-2-[trans-4-(dimethylamino)cyclohexyl]-N-[(4,6-dimethyl-2-oxo-1,2-dihydropyridin-3-yl)methyl]-2,4-dimethyl-1,3-benzodioxole-5-carboxamide]	dramatically increased	inhibit	inhibit	significantly reduce the viability	185 nM	significantly reduce the viability	7.63 nM	the number of early apoptotic cells increased	the number of viable cells decreases
Cc1cc(C)c(CNC(=O)c2cc(Cl)c3c(c2C)O[C@@](C)([C@H]2CC[C@H](N(C)C)CC2)O3)c(=O)[nH]1 [compound B, (2R)-7-chloro-2-[trans-4-(dimethylamino)cyclohexyl]-N-[(4,6-dimethyl-2-oxo-1,2-dihydropyridin-3-yl)methyl]-2,4-dimethyl-1,3-benzodioxole-5-carboxamide]	dramatically increased	inhibit	inhibit	significantly reduce the viability	90.6 nM	significantly reduce the viability	5.92 nM	the number of early apoptotic cells increased	the number of viable cells decreases
